From patent US20100160438A1, “NOVEL USE OF A NUTRACEUTICAL COMPOSITION IN ANIMAL FEED” (priority 2006, published 2010)

Key:
[1] = system: ileo-rectal anastomosed piglets; assay: ileal apparent digestibility of nitrogen, energy and amino acids in ileo-rectal anastomosed piglets; type: in vivo, Large White×Landrace×Piétrain piglets; settings: for ileal apparent lysine digestibility / ileal apparent threonine digestibility: mean ± σ
Method: Ten Large White×Landrace×Piétrain piglets were used. The animals were obtained from the GAEC Leclerc, F-68150 Ostheim and were 60 days old at the beginning of the experiment.
Each animal was subjected to an ileo-rectal anastomosis according to the techniques described by Laplace et al. (1994). After surgery piglets were housed individually in stainless-steel metabolic cages in an animal room under controlled temperature (22° C.), humidity (50%), ventilation (1100 m3/h) and lighting (12 hours light/12 hours darkness cycle). […] Meanwhile they were fed ad libitum a vegetal based diet for piglets and had free access to tap water.
During the experimental period, piglets were fed each and alternatively the vegetal based diet supplemented or not with 0.5% benzoic acid.
An indigestible tracer, chromium oxide, was added at a concentration of 0.4% to all the diets in order to measure ileal apparent digestibility.
The experience was composed of 2 periods of 12 days each divided in 10 adaptation days and in 2 ileal content sampling days.
Each animal was fed alternatively with each diet, so that each diet was tested 10 times.
For the digestibility estimations, samples of ileal content were collected daily, during the 2 sampling days, from 8 AM to 3 PM, as soon as they were produced. Immediately after each sampling, the collected contents were weighed and frozen at −80° C. All the daily samples from the same piglet were bulked. Before analysis the samples were freeze dried and grounded to a fine powder. A total of […] samples were obtained for each diet.
The dry matter contents of the freeze-dried samples were determined after drying overnight at 105° C., 20 g of the diets and 15 g of the ileal samples, according to the standard Association of Official Analytical Chemists (AOAC) procedure (1990).
The diets and ileal samples chromium oxide levels were determined by inductively coupled plasma-atomic emission spectrometry (ICP) after mineralization at 350° C. during 20 min with oxidant reagent.
Total energy levels were determined on the freeze-dried diets and ileal contents using a calorimeter IKA C7000.
Total nitrogen concentrations were determined on the freeze-dried diets and ileal contents using a nitrogen analyzer LECO FP-428.
Total amino acids were determined after an acidic hydrolysis on the freeze-dried diets and intestinal contents. Tryptophan analysis was omitted. Cys and Met were analyzed as cysteic acid and methionine sulfone after oxidation with formic acid and hydrogen peroxide followed by an acidic hydrolysis at 110° C. with 6 N HCl. All the other amino acids were analyzed after an acidic hydrolysis at 110° C. with 6 N HCl.
Individual amino acid concentrations were measured after derivation using Waters AccQ.Fluor reagent and quantified by reversed-phase HPLC by fluorescence detection after elution on a Pico.Tag C18 column.
Correcting with the dry matter, the chromium oxide and the diet tested parameter concentrations, all the tested parameter levels of the freeze-dried ileal contents were expressed in % apparent digestibility using the following formula:
[formula] • Ci=parameter concentration (% dry matter) in the ileal content • Cd=parameter concentration (% dry matter) in the diet • Mi=chromium oxide concentration (% dry matter) in the ileal content • Md=chromium oxide concentration (% dry matter) in the diet
For each test group, statistic analysis of the data involved the calculation of the mean and standard deviation of the mean as well as an analysis of variance followed by Student's “t” test to assess the significance of group differences between group A and benzoic acid supplemented group B for a probability of 10% for the amino acids and 5% for nitrogen and energy.

piglets = assay: animal health status controlled daily during the feeding trial; type: in vivo, Large White×Landrace×Piétrain piglets; settings: piglets fed alternately diet with or without 0.5% benzoic acid, 2 periods of 12 days
Source text: The animal health status was controlled daily.
At the beginning of the study all the piglets had recovered from the anesthesia and the surgery. […] All the feedings and all the sampling could be achieved.

[2] = 0.5% benzoic acid in diet vs non-supplemented diet, statistically non-significant (p<0.10)
[3] = 0.5% benzoic acid in diet vs non-supplemented diet, statistically significant (p<0.05)
[4] = 0.5% benzoic acid in diet vs non-supplemented diet, statistically significant (p<0.10)
[5] = piglets, Benzoic acid 0.5% in diet
[6] = piglets, diet supplemented with 0.5% benzoic acid, mean ± SD
[7] = piglets, diet supplemented with 0.5% benzoic acid
[8] = piglets, diet supplemented with 0.5% benzoic acid, listed as Benzoic acid

SMILES: O=C(O)c1ccccc1 [benzoic acid]
- increase of ileal apparent sulfured amino acids digestibility compared to the control group [1, 2]: 2.9%
- increase of ileal apparent threonine digestibility compared to the control group [1, 2]: 2.7%
- increase of ileal apparent energy digestibility compared to the control group [1, 3]: 4.4%
- increase of ileal apparent total nitrogen digestibility compared to the control group [1, 3]: 5.3%
- increase of ileal apparent branched chain amino acids digestibility compared to the control group [1, 4]: 2.9%
- increase of ileal apparent essential amino acids digestibility compared to the control group [1, 4]: 2.9%
- increase of ileal apparent lysine digestibility compared to the control group [1, 4]: 3.5%
- increase of ileal apparent total amino acids digestibility compared to the control group [1, 4]: 2.9%
- Mean digestibility ± σ, Ala (ileal apparent) [1, 5]: 75.3 ± 3.7%
- Mean digestibility ± σ, Arg (ileal apparent) [1, 5]: 87.0 ± 1.8%
- Mean digestibility ± σ, Asp + Asn (ileal apparent) [1, 5]: 79.1 ± 3.2%
- Mean digestibility ± σ, Cys (ileal apparent) [1, 5]: 79.7 ± 4.4%
- Mean digestibility ± σ, Glu + Gln (ileal apparent) [1, 5]: 86.7 ± 2.1%
- Mean digestibility ± σ, Gly (ileal apparent) [1, 5]: 75.1 ± 4.4%
- Mean digestibility ± σ, His (ileal apparent) [1, 5]: 86.4 ± 2.5%
- Mean digestibility ± σ, Hyp (ileal apparent) [1, 5]: 41.4 ± 13.4%
- Mean digestibility ± σ, Ile (ileal apparent) [1, 5]: 81.5 ± 3.6%
- Mean digestibility ± σ, Leu (ileal apparent) [1, 5]: 84.5 ± 2.4%
- Mean digestibility ± σ, Met (ileal apparent) [1, 5]: 80.7 ± 3.5%
- Mean digestibility ± σ, Phe (ileal apparent) [1, 5]: 84.5 ± 2.3%
- Mean digestibility ± σ, Pro (ileal apparent) [1, 5]: 85.8 ± 2.4%
- Mean digestibility ± σ, Ser (ileal apparent) [1, 5]: 82.6 ± 2.9%
- Mean digestibility ± σ, Tyr (ileal apparent) [1, 5]: 80.8 ± 2.8%
- Mean digestibility ± σ, Val (ileal apparent) [1, 5]: 79.5 ± 3.6%
- ileal apparent branched chain amino acids digestibility [1, 6]: 82.7±2.8%
- ileal apparent energy digestibility [1, 6]: 72.6±4.7%
- ileal apparent essential amino acids digestibility [1, 6]: 82.7±2.6%
- ileal apparent sulfured amino acids digestibility [1, 6]: 80.1±3.5%
- ileal apparent total amino acids digestibility [1, 6]: 82.0±2.7%
- ileal apparent total nitrogen digestibility [1, 6]: 77.7±3.1%
- ileal apparent lysine digestibility [1, 7]: 82.3±2.8%
- ileal apparent threonine digestibility [1, 7]: 78.0±3.9%
- ileal apparent lysine digestibility [1, 8]: 82.3 ± 2.8%
- ileal apparent threonine digestibility [1, 8]: 78.0 ± 3.9%
- symptoms of illness or toxicosis (piglets): None of the animals showed during the experimental period, any symptoms of illness or toxicosis
